Reference: patent US4764358A, “Radiolabeled dimethyl branched long chain fatty acid for heart imaging” (The United States of America as represented by the United …, priority 1986, dated 1988)
Like-named read-outs stand apart in the source and are kept apart here.

Assays:
[1] = Triple-label experiment, (123I)DMIPP/(131I)BMIPP/(125I)IPP mixture in fasted rats; format: in vivo, fasted female Fischer rats; conditions: for initial uptake or "extraction" phase (myocardial): DMIPP, BMIPP and IPP compared
Source text: Nevertheless, in the present experiment, the mass of each fatty acid injected was very similar to eliminate any effects of possible synergistic action on myocardial uptake.

[2] = Effect of relative BMIPP/IPP mass ratios on biodistribution properties in rats; format: in vivo; conditions: ratios of up to 6:1
Source text: Nevertheless, in the present experiment, the mass of each fatty acid injected was very similar to eliminate any effects of possible synergistic action on myocardial uptake. […] Within a few minutes following injection, however, differences in retention are clearly evident in fasted animals.

[3] = Myocardial uptake/retention and heart:blood ratio, DMIPP compared with monomethyl BMIPP and IPP; conditions: after 60 min
Experimental: (§4) Iodine-125 DMIPP was administered in 6% BSA solution to groups of fasted and fed rats. The animals were killed at time periods varying from 5 min to 8 h and selected tissues and aliquots of blood removed and analyzed in a gamma spectrometer.

in vivo = assay: in vivo; set-up: species or system female Fischer rats; conditions: rat, iv; for tissue uptake at 5 min / tissue uptake at 0.5 h / tissue uptake at 1 h / tissue uptake at 2 h / tissue uptake at 4 h / tissue uptake at 8 h: distribution of radioactivity
Experimental: (§1) DISTRIBUTION OF RADIOACTIVITY
(% INJECTED DOSE/GRAM OF TISSUE) IN FASTED
(§2) RATS AT VARIOUS TIMES AFTER INTRAVENOUS ADMINISTRATION OF
(§3) 15-(p-[^125 I]IODOPHENYL)-3,3-DIMETHYLPENTADECANOIC ACID (DMIPP)
Mean and range values for five (5, 30 and 60 min) or four (2, 4 and 8 h)
female Fischer rats. Other tissues that were analyzed include spleen,
as §1
(% INJECTED DOSE/ORGAN OF TISSUE) IN FASTED
as §2, §3
Time after injection; Percent injected dose/organ (range)

[4] = Myocardial retention after intravenous administration to unfasted rats; format: in vivo; conditions: first couple of hours after intravenous administration
Source text: Dimethyl branching was placed at the beta carbon to compare it with the monomethyl branched analogue and because of ease of synthesis. It is believed that dimethyl branching at the alpha carbon would give similar results.

[5] = rat, in vivo
Experimental: as §4

In the case of `CC(CCCCCCCCCCCCc1ccc([123I])cc1)CC(=O)O` (stereo not drawn) [BMIPP], the “initial uptake or "extraction" phase (myocardial)” value [1] is reported as “very similar for these three agents”, the “effect of relative BMIPP/IPP mass ratios on biodistribution properties” value [2] is reported as “insignificant effect” and the “loss (washout) from heart” value [3] is reported as “approximately 40%”.

With `CC(C)(CCCCCCCCCCCCc1ccc(I)cc1)CC(=O)O` [DMIPP, 15-(p-iodophenyl)-3,3-dimethylpentadecanoic acid] the “Blood, distribution of radioactivity” value (in vivo; 5 min) was 8.47 % injected dose/organ, the “Heart, distribution of radioactivity” value (in vivo; 5 min) was 1.95 % injected dose/organ and the “Kidneys, distribution of radioactivity” value (in vivo; 5 min) was 1.45 % injected dose/organ. For the same compound, the “Liver, distribution of radioactivity” value (in vivo; 5 min) was 30.9 % injected dose/organ, the “Lungs, distribution of radioactivity” value (in vivo; 5 min) was 1.63 % injected dose/organ and the “Mean Heart:Blood” value (in vivo; 5 min) was 3:1. The “Thyroid, distribution of radioactivity” value (in vivo; 5 min) was 0.14 % injected dose/organ, the “Blood, distribution of radioactivity” value (in vivo; 30 min) was 2.30 % injected dose/organ and the “Heart, distribution of radioactivity” value (in vivo; 30 min) was 2.09 % injected dose/organ. For the same compound, the “Kidneys, distribution of radioactivity” value (in vivo; 30 min) was 1.49 % injected dose/organ, the “Liver, distribution of radioactivity” value (in vivo; 30 min) was 28.8 % injected dose/organ and the “Lungs, distribution of radioactivity” value (in vivo; 30 min) was 0.99 % injected dose/organ. The “Mean Heart:Blood” value (in vivo; 30 min) was 12:1, the “Thyroid, distribution of radioactivity” value (in vivo; 30 min) was 0.15 % injected dose/organ and the “Blood, distribution of radioactivity” value (in vivo; 60 min) was 2.41 % injected dose/organ. The “Heart, distribution of radioactivity” value (in vivo; 60 min) was 2.24 % injected dose/organ, the “Kidneys, distribution of radioactivity” value (in vivo; 60 min) was 1.51 % injected dose/organ and the “Liver, distribution of radioactivity” value (in vivo; 60 min) was 32.4 % injected dose/organ. The “Lungs, distribution of radioactivity” value (in vivo; 60 min) was 0.98 % injected dose/organ, the “Mean Heart:Blood” value (in vivo; 60 min) was 12.5:1 and the “Thyroid, distribution of radioactivity” value (in vivo; 60 min) was 0.11 % injected dose/organ. The “Blood, distribution of radioactivity” value (in vivo; 120 min) was 2.24 % injected dose/organ, the “Heart, distribution of radioactivity” value (in vivo; 120 min) was 1.99 % injected dose/organ and the “Kidneys, distribution of radioactivity” value (in vivo; 120 min) was 1.62 % injected dose/organ. The “Liver, distribution of radioactivity” value (in vivo; 120 min) was 22.8 % injected dose/organ, the “Lungs, distribution of radioactivity” value (in vivo; 120 min) was 0.87 % injected dose/organ and the “Mean Heart:Blood” value (in vivo; 120 min) was 12.6:1. The “Thyroid, distribution of radioactivity” value (in vivo; 120 min) was 0.17 % injected dose/organ, the “Blood, distribution of radioactivity” value (in vivo; 240 min) was 2.04 % injected dose/organ and the “Heart, distribution of radioactivity” value (in vivo; 240 min) was 1.56 % injected dose/organ. For the same compound, the “Kidneys, distribution of radioactivity” value (in vivo; 240 min) was 1.58 % injected dose/organ, the “Liver, distribution of radioactivity” value (in vivo; 240 min) was 16.7 % injected dose/organ and the “Lungs, distribution of radioactivity” value (in vivo; 240 min) was 1.77 % injected dose/organ. For the same compound, the “Mean Heart:Blood” value (in vivo; 240 min) was 11.2:1, the “Thyroid, distribution of radioactivity” value (in vivo; 240 min) was 0.22 % injected dose/organ and the “Blood, distribution of radioactivity” value (in vivo; 480 min) was 1.59 % injected dose/organ. For the same compound, the “Heart, distribution of radioactivity” value (in vivo; 480 min) was 1.05 % injected dose/organ, the “Kidneys, distribution of radioactivity” value (in vivo; 480 min) was 1.34 % injected dose/organ and the “Liver, distribution of radioactivity” value (in vivo; 480 min) was 11.4 % injected dose/organ. The “Lungs, distribution of radioactivity” value (in vivo; 480 min) was 0.66 % injected dose/organ, the “Mean Heart:Blood” value (in vivo; 480 min) was 9.3:1 and the “Thyroid, distribution of radioactivity” value (in vivo; 480 min) was 0.28 % injected dose/organ. For the same compound, the tissue uptake at 5 min (in vivo; Blood) was 1.48 %ID/g, the tissue uptake at 0.5 h (in vivo; Blood) was 0.42 %ID/g and the tissue uptake at 1 h (in vivo; Blood) was 0.36 %ID/g. It also gave a tissue uptake at 2 h (in vivo; Blood) of 0.35 %ID/g, a tissue uptake at 4 h (in vivo; Blood) of 0.31 %ID/g and a tissue uptake at 8 h (in vivo; Blood) of 0.24 %ID/g. It also gave a tissue uptake at 5 min (in vivo; Heart) of 4.67 %ID/g, a tissue uptake at 0.5 h (in vivo; Heart) of 5.06 %ID/g and a tissue uptake at 1 h (in vivo; Heart) of 4.49 %ID/g. The tissue uptake at 2 h (in vivo; Heart) was 4.37 %ID/g, the tissue uptake at 4 h (in vivo; Heart) was 3.53 %ID/g and the tissue uptake at 8 h (in vivo; Heart) was 2.24 %ID/g. For the same compound, the tissue uptake at 5 min (in vivo; Kidneys) was 1.39 %ID/g, the tissue uptake at 0.5 h (in vivo; Kidneys) was 1.47 %ID/g and the tissue uptake at 1 h (in vivo; Kidneys) was 1.46 %ID/g. For the same compound, the tissue uptake at 2 h (in vivo; Kidneys) was 1.41 %ID/g, the tissue uptake at 4 h (in vivo; Kidneys) was 1.39 %ID/g and the tissue uptake at 8 h (in vivo; Kidneys) was 1.19 %ID/g. For the same compound, the tissue uptake at 5 min (in vivo; Liver) was 7.73 %ID/g, the tissue uptake at 0.5 h (in vivo; Liver) was 7.3 %ID/g and the tissue uptake at 1 h (in vivo; Liver) was 6.02 %ID/g. For the same compound, the tissue uptake at 2 h (in vivo; Liver) was 5.32 %ID/g, the tissue uptake at 4 h (in vivo; Liver) was 3.56 %ID/g and the tissue uptake at 8 h (in vivo; Liver) was 2.52 %ID/g. For the same compound, the tissue uptake at 5 min (in vivo; Lungs) was 2.15 %ID/g, the tissue uptake at 0.5 h (in vivo; Lungs) was 1.42 %ID/g and the tissue uptake at 1 h (in vivo; Lungs) was 1.17 %ID/g. For the same compound, the tissue uptake at 2 h (in vivo; Lungs) was 1.12 %ID/g, the tissue uptake at 4 h (in vivo; Lungs) was 0.97 %ID/g and the tissue uptake at 8 h (in vivo; Lungs) was 0.79 %ID/g. For the same compound, the tissue uptake at 5 min (in vivo; Thyroid) was 16.7 %ID/g, the tissue uptake at 0.5 h (in vivo; Thyroid) was 18.5 %ID/g and the tissue uptake at 1 h (in vivo; Thyroid) was 15.8 %ID/g. It also gave a tissue uptake at 2 h (in vivo; Thyroid) of 17.9 %ID/g, a tissue uptake at 4 h (in vivo; Thyroid) of 22.9 %ID/g and a tissue uptake at 8 h (in vivo; Thyroid) of 27.8 %ID/g. The “initial uptake or "extraction" phase (myocardial)” value [1] was “very similar for these three agents”, the “retention and heart:blood ratios (triple label)” value ([1]; in comparison to BMIPP and IPP) was “greater retention and higher heart:blood ratios” and the myocardial retention [4] was “essentially irreversible myocardial retention”. For the same compound, the heart-to-blood ratio [5] was 10/1, the “heart:blood ratios, in words” value [5] was “much higher heart:blood ratios” and the “loss (washout) from heart” value [5] was “approximately 24%”. The “myocardial retention, effect of dimethyl branching into the IPP molecule” value [5] was “substantial increase in the myocardial retention”, the myocardial uptake [5] was “high myocardial uptake” and the “radioiodine in the blood, effect of dimethyl branching into the IPP molecule” value [5] was “dramatic decrease of radioiodine in the blood”. The “retention in the heart” value [5] was “prolonged retention”, the “t1/2 (heart retention)” value [5] was 12 h and the “time it remained measurable (in the heart)” value [5] was “up to 12 hours”. The “mean heart:blood ratios” value ([5]; 15 min) was “greater than 10:1”.

With `O=C(O)CCCCCCCCCCCCCCc1ccc([125I])cc1` [IPP, reference compound] the “initial uptake or "extraction" phase (myocardial)” value [1] was “very similar for these three agents” and the “effect of relative BMIPP/IPP mass ratios on biodistribution properties” value [2] was “insignificant effect”.
